Measurements from patent US20240226234A1, “WNT5A PEPTIDES FOR THE TREATMENT OF ACUTE M[…]” (W[…], priority 2021, published 2024).
No end group written: not given here. *: point of attachment. For = O=C*

Tests used:
K562 cells [1] = assay: Transwell chemotaxis assay toward CXCL12, K562 cells; assay type: cell-based, human; details: K562, Foxy-5 100 μM 72 h pretreatment, CXCL12 100 ng/mL, 24 h
Procedure: Leukemic cell lines, pretreated or not with Foxy-5 (72 hours of stimulation) were tested for chemotaxis in Transwell-based assays for Chemotaxis (6.5 mm diameter, 8 μm pore size; Corning). Polycarbonate membranes were incubated with poly-L-lysine (1 mg/mL) for 1 hour at 37° C. followed by saline buffer washing. Briefly, cells were collected, washed with media containing bovine serum albumin (0.1% BSA; Sigma), and then seeded at a density of 5×10^5 cells into the upper chamber of the transwell. The lower chamber was filled with media containing 0.5% BSA (negative control), media containing 10% FBS (positive control) and media 5 containing 0.5% BSA with CXCL12 (100 ng/ml; Peprotech) (Melo et al., 2014). Following 6 h or 24 h of incubation at 37° C., cells that migrated into the lower chamber were collected, centrifuged, resuspended in saline buffer and counted. The number of migrated cells was expressed as a percentage of the input, i.e., the cells number applied directly to the lower compartment in parallel wells. The migration of cells was normalized to 100%+/−standard deviation (SD) of triplicates (Favaro et al., 2013).
We investigated whether restoring of WNT5A could enable the modulation CXCL12-induced chemotaxis of leukemia cells. […]

K562 cells [2] = assay: ROS production by flow cytometry, K562 cells; assay type: cell-based, human; details: 72 h; for ROS production (MFI): K562, 2D culture on HS5 stromal cells; for ROS production (mean fluorescence intensity): K562, monoculture
Procedure: (§1) A panel of human myeloid leukemia cell lines (HL60, K562, KG1a, THP1 and U937) and HS-5 mesenchymal stromal cells lineage were cultured in Roswell Park Memorial Institute medium-1640 (RPMI; Sigma) containing 10% Fetal Bovine Serum (Gibco), glutamine (2 mM; Sigma), penicillin (100 μg/mL; Sigma), streptomycin (100 μg/mL; Sigma), and amphotericin B (0.25 μg/mL; Gibco). The cells were maintained in a humidified atmosphere at 37° C. and 5% CO2 and the experiments were performed when they reached exponential growth. For the assays, cells were seeded on a 24-well plate and treated or not with Foxy-5 for 72 hours.
Cells treated with Foxy or with vehicle were collected and intracellular ROS generation was measured by flow cytometry following staining with DCFDA ([…]; Sigma). Acquisition of cells was performed on a FACScalibur flow cytometer (BD) and analysis was carried out using the FlowJo software.
Leukemia cell lines were treated for 72 h with Foxy-5, at doses of 50 and 100 μM, or vehicle, stained with DCFHA dye, and analyzed by flow cytometry.

HL60 cells = assay: Cell cycle assay, HL60 cells; assay type: cell-based, human; details: 72 h
Procedure: as §1
(§2) Cells treated with Foxy or with vehicle were collected and fixed, at least, 24 hours in 70% ethanol. DNA was stained with a buffer containing iodide propidium (20 μg/mL; Sigma) and RNase A (10 μg/mL; Sigma). Cell fluorescence was detected with a FACSCalibur flow cytometer (BD). The proportions of cells in the cell cycle phases were analyzed by Modifit (Verify Software House Inc), according to DNA distributions.
(§3) As we observed a reduction in the leukemic proliferation after Foxy-5 treatment, we also analyzed the cell cycle phases. Leukemia cell lines were treated for 72 hours with Foxy-5, at doses of 50 μM and 100 μM, or vehicle, stained with the Piper buffer containing RNAse and iodeto propidium and then analyzed by flow cytometry.

U937 xenografts = assay: U937 xenograft mouse model, tumour growth; assay type: in vivo; details: NOD/SCID mice, Foxy-5 40 μg/μL i.p. once every 2 days
Source text: The control group received equal amounts of vehicle solution.

U937 cells [3] = assay: Actin polymerization assay, U937 cells; assay type: cell-based, human; details: U937, Foxy-5 100 μM 72 h
Procedure: F-actin polymerization was analyzed in treated leukemic cell lines using AlexaFluor 633-labeled phalloidin (A22284, Invitrogen) before and after CXCL12 stimulation. The cells were stimulated with CXCL12 (300 ng/ml; Peprotech) in serum-free media at 37 °C for 30 and 120 seconds. The reaction was stopped by adding 3 volumes of paraformaldehyde (3.7%) at room temperature for 10 min, then washed and permeabilized on ice. Cells were stained with 633-phalloidin (2 mg/mL). Flow cytometric data were analyzed using a FACS flow cytometer (BD) followed by FlowJo software analysis. The F-actin content obtained were normalized calculating the ratio between each stimulated cells-mean fluorescence intensity (MFI) values and the nonstimulated cells MFI from the basal levels of the control cells and expressed as fold change.
Therefore, we performed a flow cytometry analysis to evaluate whether Foxy-5 treatment would be able to disrupt actin polymerization. Leukemia cell lines were treated with Foxy-5 (100 μM) or vehicle during 72 hours, stimulated with CXCL12 (300 ng/ml) for 30 or 120 seconds, and stained with […] for detection of actin polymerization by flow cytometry. […] Thus, a significant reduction of actin polymerization was shown after Foxy-5 treatment when compared to untreated cells after 30 seconds of CXCL12 induction (P<. 001).

U937 cells [4] = assay: Cell differentiation assay with PMA, U937 cells; assay type: cell-based, human; details: U937, PMA (200 nM), 72 hours, morphology by microscopy
Procedure: Cells were subjected to treatment with Foxy-5 or with vehicle, in the presence or absence of PMA (200 nM). After 72 hours, adherent cells were washed with PBS and their morphology was examined using a Zeiss Axi-oskope 2 Plus microscope (Carl Zeiss AG). The program ImageJ was used to assess differentiation.
PMA reagent is a typical inducer of AML cell differentiation through generation of ROS. As U937 leukemia cell lineage corresponds to a model of differentiated monocyte and/or macrophage following treatment with PMA, we examined the effects of Foxy-5 treatment on U937 differentiation-inducing PMA. Following treatment with PMA for 72 hours, cells were examined by microscopy to detect morphology. The majority of cells treated with vehicle and stimulated with PMA differentiated into macrophages and adhered to the plates.

U937 cells [5] = assay: Cell cycle assay, U937 cells; assay type: cell-based, human; details: 72 h
Procedure: as §1, §2, §3

## Foxy-5: Formylated hexapeptide fragment of WNT5A: MDGCEL (SEQ. ID. NO. 3) with methionine in position 1 as N-formyl methionine; WNT5A-mimicking compound (For-MDGCEL; listed as Homo sapiens)
K562 cells [1]
  CXCL12-induced chemotaxis (migrated cells as percentage of the input, average): 1.52%
K562 cells [2]; Foxy-5 50 μM
  ROS production (MFI): 126.00 (range 125.000-128.20) MFI
  ROS production (mean fluorescence intensity): 83.90 (range 75.80-88.40) MFI
K562 cells [2]; Foxy-5 100 μM
  ROS production (MFI): 98.25 (range 98.25-104.00) MFI
  ROS production (mean fluorescence intensity): 68.75 (range 64.40-72.75) MFI
HL60 cells; HL60, co-cultured with HS5 stromal cells, Foxy-5 50 μM
  cells in G0/G1 cell cycle phase (average): 53.47%
HL60 cells; HL60, co-cultured with HS5 stromal cells, Foxy-5 100 μM
  cells in G0/G1 cell cycle phase (average): 70.68%
HL60 cells; HL60, monoculture, Foxy-5 50 μM
  cells in G0/G1 cell cycle phase (average): 51.57%
HL60 cells; HL60, monoculture, Foxy-5 100 μM
  cells in G0/G1 cell cycle phase (average): 53.02%
U937 xenografts; 9 days
  tumour volume (median): 469 mm^3
U937 xenografts; vs control group at day 9
  inhibition of tumour growth: 55.46%
  inhibition of tumour weight: 45.51%
U937 cells [3]; CXCL12 300 ng/ml for 30 seconds
  F-actin content following CXCL12 stimulation: 3.03 fold increase
U937 cells [3]; CXCL12 300 ng/ml for 120 seconds
  F-actin content following CXCL12 stimulation: 1.26 fold
U937 cells [4]
  PMA-mediated differentiation compared with PMA-stimulated cells treated with vehicle: reduced PMA-mediated differentiation
U937 cells [5]; U937, co-cultured with HS5 stromal cells, Foxy-5 50 μM
  cells in G0/G1 cell cycle phase (average): 77.37%
U937 cells [5]; U937, co-cultured with HS5 stromal cells, Foxy-5 100 μM
  cells in G0/G1 cell cycle phase (average): 91.52%
U937 cells [5]; U937, monoculture, Foxy-5 50 μM
  cells in G0/G1 cell cycle phase (average): 55.07%
U937 cells [5]; U937, monoculture, Foxy-5 100 μM
  cells in G0/G1 cell cycle phase (average): 56.64%
